Results as given in ChEMBL document CHEMBL1201862, “PubChem BioAssay data set” (2004).
Several values for one entry are separate records, joined by “and”; a condition that tells them apart may be missing. Equal values may be shown once. Activity calls are given as the source filed them.

Assays:
[1] = molecular target: Latent membrane protein 1 (Human herpesvirus 4 (strain B95-8), UniProt P03230); assay: TES1-eGFP NF-kB reporter inhibition versus Tet-On dsRED, dose response, selectivity assay for LMP1 NF-kB inhibitor project, imaging, HEK293T, dual-color eGFP/dsRED, cherry-picks (AID 588398); format: functional, cell-based
[2] = cytotoxicity toward Colo320 cells – cell-based, CellTiter-Glo luminescence, IC50, dose response (AID 1117334); format: functional; settings: COLO 320
[3] = Concentration-dependent survival of SW480 colon cancer line, luminescence detection with CellTiter-Glo, half-maximal inhibitory concentration (AID 1117338); format: functional
HEK293 = assay: inhibitors of LMP1-driven NF-kB reporter, dose response, cell-based, HEK293, luciferase, cherry-pick (AID 588343); format: functional; settings: Homo sapiens
[4] = Luminescence-based dose response cell-based high throughput screening assay for cytotoxic compounds using the IEC-6 intestinal epithelial cell line. [Related pubchem assays: 1858 (Summary AID.), 1825 (Counterscreen.), 1907 (Confirmation screen.)]; format: functional
[5] = cytotoxicity toward HT-29 cells – cell-based, CellTiter-Glo luminescence, IC50, dose response (AID 1117330); format: functional
[6] = SNU-C1 cell viability reduction, dose response, CellTiter-Glo luminescence (AID 1117323); format: functional, cell-based
[7] = cytotoxicity in HEK-293T cells, dose response, cytotoxicity control for BCR NF-kB inhibitor project, luminescence, B-cell screen hits (AID 489021); format: functional, cell-based;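 also: HEK-293T cells carrying an NF-kB luciferase reporter; cells exposed to compound for about 14 hours before viability readout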
Exodeoxyribonuclease V = molecular target: T1, Exodeoxyribonuclease V (Escherichia coli (strain K12), UniProt P04993+P07648+P08394); assay: E. coli RecBCD inhibitors, dose response, counter-screen for AddAB inhibitor project, absorbance, V66 E. coli, mutant T4 phage (AID 492957); format: functional, cell-based, Escherichia coli str. K-12 substr. MG1655
T1 sequence (P04993 whole entry): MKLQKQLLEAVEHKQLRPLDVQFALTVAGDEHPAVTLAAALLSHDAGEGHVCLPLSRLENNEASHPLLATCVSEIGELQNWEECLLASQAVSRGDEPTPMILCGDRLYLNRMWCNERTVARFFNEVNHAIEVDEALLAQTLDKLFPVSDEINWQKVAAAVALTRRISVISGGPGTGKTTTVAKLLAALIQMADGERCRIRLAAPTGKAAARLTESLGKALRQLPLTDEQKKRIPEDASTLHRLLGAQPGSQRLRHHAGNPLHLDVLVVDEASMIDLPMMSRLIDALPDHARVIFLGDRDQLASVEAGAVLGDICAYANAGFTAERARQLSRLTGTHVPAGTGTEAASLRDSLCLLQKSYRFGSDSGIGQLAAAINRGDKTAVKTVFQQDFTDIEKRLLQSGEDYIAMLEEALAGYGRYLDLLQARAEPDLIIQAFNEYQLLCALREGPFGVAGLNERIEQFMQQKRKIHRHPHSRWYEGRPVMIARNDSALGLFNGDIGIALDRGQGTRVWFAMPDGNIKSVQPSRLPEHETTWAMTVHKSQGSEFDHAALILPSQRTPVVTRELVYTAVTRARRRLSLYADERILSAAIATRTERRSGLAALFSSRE
T1 sequence (P07648 whole entry): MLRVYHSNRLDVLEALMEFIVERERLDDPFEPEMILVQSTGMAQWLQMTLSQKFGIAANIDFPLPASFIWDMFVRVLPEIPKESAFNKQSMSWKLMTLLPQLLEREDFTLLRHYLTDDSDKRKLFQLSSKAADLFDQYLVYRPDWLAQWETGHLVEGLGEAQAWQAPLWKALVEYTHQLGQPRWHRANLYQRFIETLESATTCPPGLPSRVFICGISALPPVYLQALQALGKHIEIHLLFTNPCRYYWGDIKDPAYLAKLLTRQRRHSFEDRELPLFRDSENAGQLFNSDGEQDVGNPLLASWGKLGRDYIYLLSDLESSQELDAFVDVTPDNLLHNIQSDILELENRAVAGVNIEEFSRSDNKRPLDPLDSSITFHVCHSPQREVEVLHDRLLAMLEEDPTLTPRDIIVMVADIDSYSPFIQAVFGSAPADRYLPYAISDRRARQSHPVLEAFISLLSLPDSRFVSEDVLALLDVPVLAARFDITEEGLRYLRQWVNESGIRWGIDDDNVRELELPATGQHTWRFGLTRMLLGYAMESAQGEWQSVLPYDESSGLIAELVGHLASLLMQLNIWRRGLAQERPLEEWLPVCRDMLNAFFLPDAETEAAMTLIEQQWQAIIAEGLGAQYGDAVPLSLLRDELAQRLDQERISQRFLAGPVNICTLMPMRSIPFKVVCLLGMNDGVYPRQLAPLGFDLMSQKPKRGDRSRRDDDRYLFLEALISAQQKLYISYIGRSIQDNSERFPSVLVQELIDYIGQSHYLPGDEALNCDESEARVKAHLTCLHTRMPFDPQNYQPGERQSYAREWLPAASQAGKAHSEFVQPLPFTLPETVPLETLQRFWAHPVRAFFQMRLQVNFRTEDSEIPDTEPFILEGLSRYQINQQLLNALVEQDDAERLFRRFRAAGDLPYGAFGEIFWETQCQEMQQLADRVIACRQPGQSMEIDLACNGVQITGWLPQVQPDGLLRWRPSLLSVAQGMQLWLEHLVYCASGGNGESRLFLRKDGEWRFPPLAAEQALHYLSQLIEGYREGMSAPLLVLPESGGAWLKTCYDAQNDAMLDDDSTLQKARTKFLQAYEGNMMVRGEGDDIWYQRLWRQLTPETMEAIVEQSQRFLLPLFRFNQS
T1 sequence (P08394 whole entry): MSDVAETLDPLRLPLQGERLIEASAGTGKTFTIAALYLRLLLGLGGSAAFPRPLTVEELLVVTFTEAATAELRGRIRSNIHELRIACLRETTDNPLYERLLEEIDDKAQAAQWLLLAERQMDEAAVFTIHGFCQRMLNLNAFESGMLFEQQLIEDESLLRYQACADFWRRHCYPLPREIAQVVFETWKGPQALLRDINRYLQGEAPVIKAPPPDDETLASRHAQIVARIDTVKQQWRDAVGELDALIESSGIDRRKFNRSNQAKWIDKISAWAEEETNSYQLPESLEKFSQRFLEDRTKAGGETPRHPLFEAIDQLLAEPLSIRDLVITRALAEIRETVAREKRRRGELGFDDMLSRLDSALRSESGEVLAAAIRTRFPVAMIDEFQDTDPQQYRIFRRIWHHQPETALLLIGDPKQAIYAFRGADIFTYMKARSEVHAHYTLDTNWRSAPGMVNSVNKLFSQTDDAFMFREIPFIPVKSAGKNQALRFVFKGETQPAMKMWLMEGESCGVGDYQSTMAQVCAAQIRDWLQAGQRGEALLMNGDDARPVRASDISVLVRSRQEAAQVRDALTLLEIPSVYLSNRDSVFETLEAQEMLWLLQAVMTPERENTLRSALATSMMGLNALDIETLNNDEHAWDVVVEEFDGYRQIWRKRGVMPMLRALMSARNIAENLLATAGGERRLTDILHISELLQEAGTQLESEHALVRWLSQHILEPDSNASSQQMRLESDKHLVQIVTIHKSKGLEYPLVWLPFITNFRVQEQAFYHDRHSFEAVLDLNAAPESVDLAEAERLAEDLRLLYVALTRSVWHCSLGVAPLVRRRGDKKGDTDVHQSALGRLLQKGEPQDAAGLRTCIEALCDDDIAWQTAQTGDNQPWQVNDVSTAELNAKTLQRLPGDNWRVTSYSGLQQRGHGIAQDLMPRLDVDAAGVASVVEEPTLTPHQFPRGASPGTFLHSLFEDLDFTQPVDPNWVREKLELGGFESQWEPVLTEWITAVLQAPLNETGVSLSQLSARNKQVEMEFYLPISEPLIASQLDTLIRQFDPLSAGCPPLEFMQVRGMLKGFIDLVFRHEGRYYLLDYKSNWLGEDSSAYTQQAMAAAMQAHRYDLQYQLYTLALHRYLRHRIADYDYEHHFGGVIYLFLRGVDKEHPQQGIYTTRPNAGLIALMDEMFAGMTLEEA

[8] = CellTiter-Glo luminescent dose response of DLD-1 viability loss (AID 1117352); format: functional
[9] = Luminescence Cell-Based Dose Retest to Confirm Inhibitors of Cancer Stem Cells. [Related pubchem assays (depositor defined):AID2717, AID2721]; format: functional; settings: Homo sapiens
[10] = inhibitors of cytokine-induced nitrite release, dose response, cell-based, Griess absorbance, INS-1E, dry powder, set 3 (AID 488870); format: functional; settings: Rattus norvegicus
INS1 [11] = assay: caspase-3/7 inhibition in cytokine-treated INS-1E, dose response, beta-cell apoptosis inhibitor project, cell-based, caspase luminescence, dry powder (AID 488848); format: functional; settings: Rattus norvegicus
INS1 [12] = assay: protection of INS-1E cells from cytokine death, dose response, ATP luminescence, dry powder (AID 488844); format: functional, cell-based; settings: Rattus norvegicus
INS1 [13] = assay: inhibitors of cytokine-induced nitrite release, dose response, cell-based, Griess absorbance, INS-1E, dry powder, set 2 (AID 488868); format: functional; settings: Rattus norvegicus
INS1 [14] = assay: inhibitors of cytokine-induced nitrite release, dose response, cell-based, Griess absorbance, INS-1E, dry powder (AID 488866); format: functional; settings: Rattus norvegicus
INS1 [15] = assay: protection from cytokine-induced mitochondrial depolarization, dose response, cell-based, INS-1E, JC-1 fluorescence ratio, dry powder (AID 488931); format: functional; settings: Rattus norvegicus
CAAX prenyl protease 2 [16] = molecular target: T2, CAAX prenyl protease 2 (Saccharomyces cerevisiae S288c, UniProt Q03530); format: biochemical
T2 sequence (Q03530 whole entry): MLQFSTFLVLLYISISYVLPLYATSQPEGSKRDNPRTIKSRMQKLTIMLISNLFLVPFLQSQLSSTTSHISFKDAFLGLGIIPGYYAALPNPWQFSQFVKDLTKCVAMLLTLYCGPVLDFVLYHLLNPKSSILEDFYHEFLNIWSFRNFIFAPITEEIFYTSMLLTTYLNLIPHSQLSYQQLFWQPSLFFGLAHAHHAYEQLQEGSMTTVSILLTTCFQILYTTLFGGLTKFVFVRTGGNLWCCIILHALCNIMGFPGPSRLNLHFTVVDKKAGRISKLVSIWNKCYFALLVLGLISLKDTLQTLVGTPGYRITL

CAAX prenyl protease 2 [17] = molecular target: T2, CAAX prenyl protease 2; assay: yeast Rce1 CaaX protease inhibitors, dose response, biochemical, plate reader, dry powder retest (AID 588851)
[18] = ADAM10 inhibitors, peptide cleavage, dose response, biochemical, QFRET (AID 743254);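 also: ADAM10 enzyme with the DM2 quenched FRET peptide as substrate; EDANS fluorescence gain as the protease cuts the substrate; inhibitor potency against ADAM10 proteolytic activity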
[19] = molecular target: Disintegrin and metalloproteinase domain-containing protein 17 (Homo sapiens, UniProt P78536); assay: ADAM17 protease inhibitors, dose response, counter-screen for ADAM10 exosite inhibitor project, biochemical, quenched FRET substrate (AID 743253)
Sequence of Disintegrin and metalloproteinase domain-containing protein 17 (P78536 whole entry, the tested form may be a part): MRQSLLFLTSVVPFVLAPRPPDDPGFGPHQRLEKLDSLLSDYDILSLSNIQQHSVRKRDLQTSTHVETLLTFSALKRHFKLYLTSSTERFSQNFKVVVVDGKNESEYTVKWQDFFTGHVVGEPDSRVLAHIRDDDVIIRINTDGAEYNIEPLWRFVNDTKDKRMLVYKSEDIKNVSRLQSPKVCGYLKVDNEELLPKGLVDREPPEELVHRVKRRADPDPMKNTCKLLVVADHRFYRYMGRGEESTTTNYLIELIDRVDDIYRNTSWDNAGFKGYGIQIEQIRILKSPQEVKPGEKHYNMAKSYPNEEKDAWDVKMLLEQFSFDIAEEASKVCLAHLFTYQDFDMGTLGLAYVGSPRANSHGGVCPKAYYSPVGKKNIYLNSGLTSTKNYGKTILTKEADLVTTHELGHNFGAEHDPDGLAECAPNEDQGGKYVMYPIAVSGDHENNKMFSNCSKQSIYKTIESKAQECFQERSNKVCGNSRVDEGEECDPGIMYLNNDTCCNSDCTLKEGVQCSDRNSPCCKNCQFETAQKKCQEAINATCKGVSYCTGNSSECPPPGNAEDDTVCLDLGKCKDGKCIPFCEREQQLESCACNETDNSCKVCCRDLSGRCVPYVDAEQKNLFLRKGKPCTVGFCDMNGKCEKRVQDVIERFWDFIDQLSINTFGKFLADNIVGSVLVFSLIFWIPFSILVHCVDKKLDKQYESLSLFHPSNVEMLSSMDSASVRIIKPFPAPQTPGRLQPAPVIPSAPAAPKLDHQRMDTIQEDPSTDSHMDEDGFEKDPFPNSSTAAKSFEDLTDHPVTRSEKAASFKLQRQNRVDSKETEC

Sequence of Latent membrane protein 1 (P03230 whole entry): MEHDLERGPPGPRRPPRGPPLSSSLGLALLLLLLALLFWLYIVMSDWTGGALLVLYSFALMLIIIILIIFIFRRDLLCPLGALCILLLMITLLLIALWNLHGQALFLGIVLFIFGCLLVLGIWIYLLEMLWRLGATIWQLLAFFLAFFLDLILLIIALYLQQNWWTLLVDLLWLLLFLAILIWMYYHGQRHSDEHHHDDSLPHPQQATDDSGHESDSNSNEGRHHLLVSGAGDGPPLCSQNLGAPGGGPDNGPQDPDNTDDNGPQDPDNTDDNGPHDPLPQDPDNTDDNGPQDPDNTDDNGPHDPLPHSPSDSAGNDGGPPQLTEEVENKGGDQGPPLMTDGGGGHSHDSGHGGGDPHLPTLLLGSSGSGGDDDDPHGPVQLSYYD

For O=c1[nH]c(=O)n([C@H]2C[C@H](O)[C@@H](CO)O2)cc1C(F)(F)F [TRIFLURIDINE], the AC50 [1] was 1.13 µM (active), the IC50 [2] was > 20 µM (inactive) and the IC50 [3] was > 20 µM (inactive). The AC50 (HEK293) was 3.28 µM (active), the IC50 [4] was 1.75 µM (active) and the IC50 [5] was > 20 µM (inactive). For the same compound, the IC50 [6] was > 20 µM (inactive), the IC50 [7] was > 80 µM (inactive) and the IC50 (Exodeoxyribonuclease V) was > 118 µM (inactive) and > 119 µM (inactive). The IC50 [8] was > 20 µM (inactive) and the AC50 [9] was 1.66 µM (active).
In the case of COc1ccc(S(=O)(=O)N(C)C[C@@H]2Oc3c(NC(=O)Nc4cccc5ccccc45)cccc3C(=O)N([C@@H](C)CO)C[C@H]2C)cc1C, the AC50 [10] is reported as 34.5 µM (active), the AC50 (INS1 [11]) is reported as 0.414 µM (active) and the AC50 (INS1 [12]) is reported as 0.436 µM (active). The AC50 (INS1 [13]) was 25.1 µM (active), the AC50 (INS1 [14]) was 45.2 µM (active) and the AC50 (INS1 [15]) was 4.91 µM (active).
With CC(C)c1c(C(=O)N/N=C/c2cccc3ccccc23)nnn1-c1nonc1N the AC50 (CAAX prenyl protease 2 [16]) was 0.117 µM (active), the AC50 (CAAX prenyl protease 2 [17]) was 3.25 µM (active) and the IC50 [18] was > 69.5 µM (inactive). The IC50 [19] was > 69.5 µM (inactive).
